# Assay results taken from publication PMC6996298 (Frontiers in Plant Science, 2020).
# T1: VvSWEET7 (Vitis vinifera, UniProt A0ACM8QLM4)
# T1 construct: gene VIT_02s0025g02080; full-length cDNA in pYES-DEST52 (GAL1 promoter), expressed in hxt-null S. cerevisiae EBY.VW4000
# T1 sequence (A0ACM8QLM4 1-260): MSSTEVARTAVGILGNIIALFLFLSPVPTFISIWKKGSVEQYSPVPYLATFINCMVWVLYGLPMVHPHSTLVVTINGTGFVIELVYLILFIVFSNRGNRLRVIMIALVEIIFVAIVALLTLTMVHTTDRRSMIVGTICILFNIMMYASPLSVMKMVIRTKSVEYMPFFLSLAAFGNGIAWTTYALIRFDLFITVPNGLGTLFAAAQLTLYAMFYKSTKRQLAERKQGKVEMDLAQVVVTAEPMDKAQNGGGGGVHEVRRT
# How the values were obtained:
# VvSWEET7 = target: T1, VvSWEET7; experiment: inhibition of D-[…]-glucose uptake in yeast EBY.VW4000; format: cell-based; conditions: read-out: % inhibition at 500 mM
# [1] = substrate: OC[C@H]1O[C@@](CO)(O[C@H]2O[C@H](CO)[C@@H](O)[C@H](O)[C@H]2O)[C@@H](O)[C@@H]1O; experiment: initial uptake of radiolabelled sugar in yeast EBY.VW4000, Michaelis-Menten; format: cell-based, Vitis vinifera; conditions: labelled compound, 7.5-125 mM, KH2PO4 pH 5.0, 30 °C, 3 min
Molecule,inhibition at 500000 µM (VvSWEET7),Km [1]
OCC1(O)OC[C@@H](O)[C@@H](O)[C@@H]1O (some centres unmarked) [fructose],79%,
OC[C@H]1OC(O)[C@H](O)[C@@H](O)[C@H]1O (some centres unmarked) [galactose],56%,
OC[C@@H](O)[C@@H](O)[C@H](O)[C@H](O)CO [mannitol],29%,
OC[C@@H](O)[C@@H](O)[C@H](O)[C@@H](O)CO [sorbitol],38%,
"VvSWEET7 (Vitis vinifera) (protein, full-length cDNA in pYES-DEST52 (GAL1 promoter), expressed in hxt-null S. cerevisiae EBY.VW4000) MSSTEVARTAVGILGNIIALFLFLSPVPTFISIWKKGSVEQYSPVPYLATFINCMVWVLYGLPMVHPHSTLVVTINGTGFVIELVYLILFIVFSNRGNRLRVIMIALVEIIFVAIVALLTLTMVHTTDRRSMIVGTICILFNIMMYASPLSVMKMVIRTKSVEYMPFFLSLAAFGNGIAWTTYALIRFDLFITVPNGLGTLFAAAQLTLYAMFYKSTKRQLAERKQGKVEMDLAQVVVTAEPMDKAQNGGGGGVHEVRRT",,40.08 mM
